Tested on: subjects with moderate-to-severe plaque psoriasis
Experiment: Hematology and chemistry laboratory values by CTCAE grade
Format: in vivo, human
Conditions: through Week 56
Excerpt: The proportion of participants who discontinued study intervention due to one or more AEs was low (n=4). All events were singular in nature with no apparent dose-dependent increase (Table 48 and Table 52). The number of participants with abnormal hematology and chemistry laboratory values with CTCAE toxicity grade≥3 were low through the end of the study (Table 43 through Table 46). There was no apparent dose-dependent increase in laboratory abnormality occurrences.

[1] = Placebo → 100 mg QD after crossover

## CC(=O)NCCCC[C@@H]1NC(=O)[C@H](Cc2c[nH]c3c(C)cccc23)NC(=O)[C@H]([C@@H](C)O)NC(=O)[C@H](CC(N)=O)NC(=O)[C@@H](NC(C)=O)C(C)(C)SSC(C)(C)[C@@H](C(=O)N[C@@H](Cc2ccc(OCCN)cc2)C(=O)N[C@@H](Cc2ccc3ccccc3c2)C(=O)NC2(C(=O)N[C@@H](CCC(=O)O)C(=O)N[C@@H](CC(N)=O)C(=O)N[C@@H](Cc3cccnc3)C(=O)N(C)CC(N)=O)CCOCC2)NC1=O [IL-23 receptor antagonist peptide, Ac-[Pen]*-N-T-[W(7-Me)]-[Lys(Ac)]-[Pen]*-Phe[4-(2-aminoethoxy)]-[2-Nal]-[THP]-E-N-[3-Pal]-Sarc-NH2 (*[Pen]-[Pen]* formdisulfidebond)]
100 mg QD
  WBC (×10^9/L) (increased): subjects with Grade 2: 0
  WBC (×10^9/L) (increased): subjects with Grade 3: 0
  WBC (×10^9/L) (increased): subjects with Grade 4: 0
  WBC (×10^9/L) (increased): subjects with postbaseline maximum toxicity grade >0: 0
Combined Formula (I) regimens
  Hemoglobin (g/L) (decreased): subjects with Grade 3: 0
  Hemoglobin (g/L) (decreased): subjects with Grade 4: 0
  Hemoglobin (g/L) (increased): subjects with Grade 2: 0
  Hemoglobin (g/L) (increased): subjects with Grade 3: 0
  Hemoglobin (g/L) (increased): subjects with Grade 4: 0
  Lymphocytes (×10^9/L) (decreased): subjects with Grade 3: 0
  Lymphocytes (×10^9/L) (decreased): subjects with Grade 4: 0
  Lymphocytes (×10^9/L) (increased): subjects with Grade 1: 0
  Lymphocytes (×10^9/L) (increased): subjects with Grade 3: 0
  Lymphocytes (×10^9/L) (increased): subjects with Grade 4: 0
  Neutrophils (×10^9/L) (decreased): subjects with Grade 3: 0
  Neutrophils (×10^9/L) (decreased): subjects with Grade 4: 0
  Platelets (×10^9/L) (decreased): subjects with Grade 2: 0
  Platelets (×10^9/L) (decreased): subjects with Grade 3: 0
  Platelets (×10^9/L) (decreased): subjects with Grade 4: 0
  WBC (×10^9/L) (decreased): subjects with Grade 3: 0
  WBC (×10^9/L) (decreased): subjects with Grade 4: 0
  WBC (×10^9/L) (increased): subjects with Grade 1: 0
  WBC (×10^9/L) (increased): subjects with Grade 2: 0
  WBC (×10^9/L) (increased): subjects with Grade 3: 0
  WBC (×10^9/L) (increased): subjects with Grade 4: 0
  WBC (×10^9/L) (increased): subjects with postbaseline maximum toxicity grade >0: 0
Combined
  Alanine Aminotransferase (increased): Subjects with Grade 4: 0
  Albumin (decreased): Subjects with Grade 1: 0
  Albumin (decreased): Subjects with Grade 2: 0
  Albumin (decreased): Subjects with Grade 3: 0
  Albumin (decreased): Subjects with Grade 4: 0
  Albumin (decreased): Subjects with postbaseline maximum toxicity grade >0: 0
  Alkaline Phosphatase (increased): Subjects with Grade 2: 0
  Alkaline Phosphatase (increased): Subjects with Grade 3: 0
  Alkaline Phosphatase (increased): Subjects with Grade 4: 0
  Aspartate Aminotransferase (increased): Subjects with Grade 4: 0
  Calcium corrected (decreased): Subjects with Grade 3: 0
  Calcium corrected (decreased): Subjects with Grade 4: 0
  Calcium corrected (increased): Subjects with Grade 2: 0
  Calcium corrected (increased): Subjects with Grade 3: 0
  Calcium corrected (increased): Subjects with Grade 4: 0
  Cholesterol (increased): Subjects with Grade 3: 0
  Cholesterol (increased): Subjects with Grade 4: 0
  Creatinine (increased): Subjects with Grade 3: 0
  Creatinine (increased): Subjects with Grade 4: 0
  Gamma Glutamyl Transferase (increased): Subjects with Grade 3: 0
  Gamma Glutamyl Transferase (increased): Subjects with Grade 4: 0
  Glucose (decreased): Subjects with Grade 3: 0
  Glucose (decreased): Subjects with Grade 4: 0
  Magnesium (decreased): Subjects with Grade 2: 0
  Magnesium (decreased): Subjects with Grade 3: 0
  Magnesium (decreased): Subjects with Grade 4: 0
  Magnesium (increased): Subjects with Grade 2: 0
  Magnesium (increased): Subjects with Grade 3: 0
  Magnesium (increased): Subjects with Grade 4: 0
  Potassium (decreased): Subjects with Grade 1: 0
  Potassium (decreased): Subjects with Grade 3: 0
  Potassium (decreased): Subjects with Grade 4: 0
  Potassium (increased): Subjects with Grade 4: 0
  Sodium (decreased): Subjects with Grade 2: 0
  Sodium (decreased): Subjects with Grade 3: 0
  Sodium (decreased): Subjects with Grade 4: 0
  Sodium (increased): Subjects with Grade 2: 0
  Sodium (increased): Subjects with Grade 3: 0
  Sodium (increased): Subjects with Grade 4: 0
  Total Bilirubin (increased): Subjects with Grade 3: 0
  Total Bilirubin (increased): Subjects with Grade 4: 0
[1]
  Hemoglobin (g/L) (decreased): subjects with Grade 2: 0
  Hemoglobin (g/L) (decreased): subjects with Grade 3: 0
  Hemoglobin (g/L) (decreased): subjects with Grade 4: 0
  Hemoglobin (g/L) (increased): subjects with Grade 2: 0
  Hemoglobin (g/L) (increased): subjects with Grade 3: 0
  Hemoglobin (g/L) (increased): subjects with Grade 4: 0
  Lymphocytes (×10^9/L) (decreased): subjects with Grade 1: 0
  Lymphocytes (×10^9/L) (decreased): subjects with Grade 3: 0
  Lymphocytes (×10^9/L) (decreased): subjects with Grade 4: 0
  Lymphocytes (×10^9/L) (increased): subjects with Grade 1: 0
  Lymphocytes (×10^9/L) (increased): subjects with Grade 2: 0
  Lymphocytes (×10^9/L) (increased): subjects with Grade 3: 0
  Lymphocytes (×10^9/L) (increased): subjects with Grade 4: 0
  Lymphocytes (×10^9/L) (increased): subjects with postbaseline maximum toxicity grade >0: 0
  Platelets (×10^9/L) (decreased): subjects with Grade 2: 0
  Platelets (×10^9/L) (decreased): subjects with Grade 3: 0
  Platelets (×10^9/L) (decreased): subjects with Grade 4: 0
  WBC (×10^9/L) (decreased): subjects with Grade 2: 0
  WBC (×10^9/L) (decreased): subjects with Grade 3: 0
  WBC (×10^9/L) (decreased): subjects with Grade 4: 0
  WBC (×10^9/L) (increased): subjects with Grade 1: 0
  WBC (×10^9/L) (increased): subjects with Grade 2: 0
  WBC (×10^9/L) (increased): subjects with Grade 3: 0
  WBC (×10^9/L) (increased): subjects with Grade 4: 0
  WBC (×10^9/L) (increased): subjects with postbaseline maximum toxicity grade >0: 0
Placebo → 100 mg QD
  Alanine Aminotransferase (increased): Subjects with Grade 1: 10
  Alanine Aminotransferase (increased): Subjects with Grade 3: 0
  Alanine Aminotransferase (increased): Subjects with Grade 4: 0
  Albumin (decreased): Subjects with Grade 1: 0
  Albumin (decreased): Subjects with Grade 2: 0
  Albumin (decreased): Subjects with Grade 3: 0
  Albumin (decreased): Subjects with Grade 4: 0
  Albumin (decreased): Subjects with postbaseline maximum toxicity grade >0: 0
  Alkaline Phosphatase (increased): Subjects with Grade 2: 0
  Alkaline Phosphatase (increased): Subjects with Grade 3: 0
  Alkaline Phosphatase (increased): Subjects with Grade 4: 0
  Aspartate Aminotransferase (increased): Subjects with Grade 4: 0
  Aspartate Aminotransferase (increased): Subjects with postbaseline maximum toxicity grade >0: 9
  Calcium corrected (decreased): Subjects with Grade 3: 0
  Calcium corrected (decreased): Subjects with Grade 4: 0
  Calcium corrected (increased): Subjects with Grade 1: 0
  Calcium corrected (increased): Subjects with Grade 2: 0
  Calcium corrected (increased): Subjects with Grade 3: 0
  Calcium corrected (increased): Subjects with Grade 4: 0
  Calcium corrected (increased): Subjects with postbaseline maximum toxicity grade >0: 0
  Cholesterol (increased): Subjects with Grade 1: 0
  Cholesterol (increased): Subjects with Grade 2: 0
  Cholesterol (increased): Subjects with Grade 3: 0
  Cholesterol (increased): Subjects with Grade 4: 0
  Cholesterol (increased): Subjects with postbaseline maximum toxicity grade >0: 0
  Creatine Kinase (increased): Subjects with Grade 2: 0
  Creatine Kinase (increased): Subjects with Grade 4: 0
  Creatinine (increased): Subjects with Grade 2: 0
  Creatinine (increased): Subjects with Grade 3: 0
  Creatinine (increased): Subjects with Grade 4: 0
  Gamma Glutamyl Transferase (increased): Subjects with Grade 3: 0
  Gamma Glutamyl Transferase (increased): Subjects with Grade 4: 0
  Glucose (decreased): Subjects with Grade 3: 0
  Glucose (decreased): Subjects with Grade 4: 0
  Magnesium (decreased): Subjects with Grade 2: 0
  Magnesium (decreased): Subjects with Grade 3: 0
  Magnesium (decreased): Subjects with Grade 4: 0
  Magnesium (increased): Subjects with Grade 2: 0
  Magnesium (increased): Subjects with Grade 3: 0
  Magnesium (increased): Subjects with Grade 4: 0
  Potassium (decreased): Subjects with Grade 1: 0
  Potassium (decreased): Subjects with Grade 3: 0
  Potassium (decreased): Subjects with Grade 4: 0
  Potassium (increased): Subjects with Grade 3: 0
  Potassium (increased): Subjects with Grade 4: 0
  Sodium (decreased): Subjects with Grade 1: 0
  Sodium (decreased): Subjects with Grade 2: 0
  Sodium (decreased): Subjects with Grade 3: 0
  Sodium (decreased): Subjects with Grade 4: 0
  Sodium (decreased): Subjects with postbaseline maximum toxicity grade >0: 0
  Sodium (increased): Subjects with Grade 1: 0
  Sodium (increased): Subjects with Grade 2: 0
  Sodium (increased): Subjects with Grade 3: 0
  Sodium (increased): Subjects with Grade 4: 0
  Sodium (increased): Subjects with postbaseline maximum toxicity grade >0: 0
  Total Bilirubin (increased): Subjects with Grade 2: 0
  Total Bilirubin (increased): Subjects with Grade 3: 0
  Total Bilirubin (increased): Subjects with Grade 4: 0
  Triglycerides (increased): Subjects with Grade 3: 0
  Triglycerides (increased): Subjects with Grade 4: 0

— US20260232767A1, “INTERLEUKIN-23 RECEPTOR ANTAGONIST PEPTIDES FOR USE IN THE TREATMENT OF PSORIASIS” (Janssen Pharmaceutica NV, priority 2023, published 2026)
